Common to all, as to format: cell-based, murine
Data set [1] can be described thus: Photosensitivity of pluripotent stem cells, cobblestone area forming cell (CAFC) assay. To be noted: mouse, bone marrow stem cells, 15 nM. An excerpt: (§1) Animals. C57B1/6 (Ly-5.2) and B6SJ-cd45 ^b pep 3^b /BOY J (Ly-5.1), were obtained from The Jackson Laboratories (Bar Harbor, Me.) and were maintained in the animal facility of the New York Blood Center. After gamma-irradiation, the animals were housed in microisolator cages and provided with autoclaved food and autoclaved acidified water (pH=3) ad libitum. Preparation of bone marrow cell suspensions--Ly-5.1 mice were used as the source of donor BM. Mice (8-10 weeks old) were killed and the BM was harvested by flushing the femoral shafts with Hank's balanced salt solution (HBSS), pH 7.4. The cell suspensions were centrifuged, washed once and the cells were finally resuspended in HBSS--10% vol/vol fetal bovine serum (FBS, Gemini Bioproducts Inc., Calabasas, Calif.).
(§2) Photosensitization. Aliquots of a 1.87 mM Pc 4 (kindly provided by Dr. M. E. Kenney) stock solution in dimethyl sulfoxide were kept at -80° C. in autoclaved brown glass vials. Immediately prior to the photosensitization, Pc4 was thawed and diluted in dimethyl formamide to yield a 10 μM working solution. […] Pc 4 was used at 15 nM throughout the experiments.
(§3) BM and cell line samples, were incubated with 15 nM Pc 4 for two hours at 37° C. at cell concentrations of 1.5×10^7 cells/mL. Aliquots of 1.5 mL were transferred to 24-well plates; separate plates were used for each sample.
(§4) In a second set of experiments, the cells were incubated with 15 nM Pc 4 at cell concentrations of 1.5×10^6 cells/mL. Prior to photoirradiation, the samples were centrifuged and the supernatants were aspirated and set aside. The cell concentrations were adjusted to 1.5×10^7 cells/mL by adding back an appropriate volume of the Pc 4 containing aspirates.
(§5) Photoinactivation. The light source used was a filtered xenon short arc lamp (Versa-Light, Model UV-R6G, Medic Lightech, Ltd., Haifa, Israel). It was used to deliver red light (λ 600-700 nm) to the sensitized cells. After a 20 minute warm up period of the instrument, the distance from the light source to the bottom of the 24-well plate was adjusted to obtain a fluence rate of 26.6 mW/cm^2, as measured with a radiometer (Model IL 1350, International Light, Newburyport, Mass.). Samples were placed under the light source and were stirred during the irradiations. Before and after the irradiations, samples were kept in the dark.
(§6) Cobblestone area forming cell assay. FBMD-1 stromal cells (gift from Dr. Ploemacher) were cultured at 33° C. in a humidified 5% CO2 -incubator in DMEM supplemented with 3.5 mM HEPES, 2 mM glutaMax (GibcoBRL), 10^-7 M sodium selenite, 10^-4 M β-mercaptoethanol, 10% vol/vol fetal calf serum (Gemini Bioproducts, Inc.), 5% vol/vol horse serum and 10^-5 M hydrocortisone 21-hemisuccinate (Breems, D. A., et al. Leukemia 8:1095 (1994); Van der Loo, J. C. M., et al. Blood 85:2598 (1995)). Prior to each experiment, FBMD-1 cells were harvested from log-phase cultures and fresh layers were prepared by seeding 1,000 cells into individual wells of 96-well flat bottom plates. These plates had been incubated overnight with 0.2% (wt/vol) gelatin to improve adherence of the stromal layer. The outer wells of the plates were filled with 100 μL 0.1 N NaOH to reduce infection.
(§7) The FBDM-1 layers were overlaid with the bone marrow samples in a limiting dilution setup; the first wells receiving 180,000-300,000 cells (Breems, D. A., et al., supra). Ten dilutions 2-fold apart were used for each sample with 18 replicate wells per dilution. The cells were cultured at 33° C. in a humidified 5% CO2 -incubator. For each sample, the fraction of wells with at least one phase-dark hematopoietic clone of at least five cells (cobblestone area) was determined weekly and cobblestone area forming cell frequencies (CAFC) were calculated using the dedicated Poison statistics program LimDil (kindly provided by Dr. Jan Hendrikx). After counting, 100 μL medium was removed from the wells and replaced with 100 μL fresh medium.
(§8) Statistics. […]

A further data set has as its system pluripotent stem cells. Described as above.
From the text: as §1, §2, §3, §4, §5, §6, §7, §8

A further data set has as its system CFU-Mk. The data set can be described thus: Photosensitivity of committed BM progenitors, colony forming assay. To be noted: 15 nM, 1.5×10^6 cells/mL.
From the text: as §1, §2, §3, §4, §5
(§9) Colony forming assays. BM samples were plated (in duplicate) in a semi-solid medium that contained IMDM (GibcoBRL), supplemented with 30% vol/vol FBS, 0.15% wt/vol deionized bovine serum albumin (Migliaccio, G., et al. Brit. J. Haematol. 67:129 (1987)) (Sigma, St. Louis, Mo.), 0.8% wt/vol methylcellulose, 75 μM β-mercaptoethanol (Sigma), antibiotics (100 U/mL penicillin, […], […] fungizone, GibcoBRL) and a cocktail of growth factors including: murine interleukin-3 (1% vol/vol COS-cell-derived supernatant, gift from Dr. K. Kaushansky), murine granulocyte-macrophage colony stimulating factor (1% vol/vol COS-cell-derived supernatant, gift from Dr. K. Kaushansky), recombinant human interleukin-11 (16 U/mL, gift from Genetics Institute, Cambridge, Mass.), recombinant rat stem cell factor (100 ng/mL), granulocyte colony stimulating factor (10 ng/mL), recombinant human erythropoietin (20 ng/mL, gifts from Amgen, Thousand Oaks, Calif.), and 800 U/mL murine thrombopoietin (800 U/mL, gift from Zymonetics, Seattle, Wash.). The samples were incubated at 37° C. in a humidified 5% CO2 -incubator and megakaryocyte colony forming units (CFU-Mk) were counted after 5 days. Blast forming units-erythroid (BFU-E), CFU-GM and mixed colonies (CFU-Mix) were counted after seven days.
(§10) Statistics. All assays were performed in triplicate unless mentioned otherwise. Data are expressed as mean values±standard error of the mean (SEM). Survival data are presented as surviving fractions relative to the surviving fractions of the untreated controls. […]

The subject of the next data set is BFU-E. The description is as above. The settings on record: 15 nM, 1.5×10^6 cells/mL.
From the text: as §1, §2, §3, §4, §5, §9, §10

Assay in data set [2]: as above
To be noted: mouse.
From the text: as §1, §2, §3, §4, §5, §9, §10

The test system of another data set is CFU-GM. Described as above. To be noted: 15 nM, 1.5×10^6 cells/mL.
From the text: as §1, §2, §3, §4, §5, §9, §10

A further data set relates to CFU-Mix. The data set is described as above. The settings on record: 15 nM, 1.5×10^6 cells/mL.
From the text: as §1, §2, §3, §4, §5, §9, §10

For data set [3], the system named is committed BM progenitor cells. The description is as above.
From the text: as §1, §2, §3, §4, §5, §9, §10

From US6159733A, “Method for photoinactivating malignant cells” (priority 1996, dated 2000) come the findings set out here.

“Also recorded” adds a separate entry of the source. Like-named read-outs stand apart in the source and are kept apart here.

Consider `CN(C)CCC[Si](C)(C)O[Si]1(O)n2c3c4ccccc4c2N=C2N=C(N=c4c5ccccc5c(n41)=NC1=NC(=N3)c3ccccc31)c1ccccc12` (stereo not shown) [Pc 4, hydroxysiloxy-dimethylpropyl-N-dimethyl silicon phthalocyanine], for which the viability at 672 h, 0.015 µM in data set [1] (1.5×10^6 cells/mL, 3 J/cm^2, two values, read-out: relative CAFC day 28 frequency) worked out at 1.8%; in data set [1] (1.5×10^7 cells/mL, 18 J/cm^2, two assays (p=0.69, p=0.78), read-out: relative CAFC frequency on day 28) it was 91%. Besides, the “relative CAFC day 28 frequency” value in the data set with pluripotent stem cells (15 nM, 1.5×10^6 cells/mL, 3 J/cm^2, two values, 40320 min, 0.015 µM) is less than 0.014. In addition, the “CAFC frequency compared with untreated samples” value was “not significantly lower” in the data set with pluripotent stem cells (15 nM, 1.5×10^7 cells/mL, 6 J/cm^2 (p=0.58)); “not significantly lower” with pluripotent stem cells (15 nM, 1.5×10^7 cells/mL, 12 J/cm^2 (p=0.40)); “not significantly lower” in the data set with pluripotent stem cells (15 nM, 1.5×10^7 cells/mL, 18 J/cm^2 (p=0.26)). Further, the “relative CAFC frequency on day 28” value in the data set on pluripotent stem cells (15 nM, 1.5×10^7 cells/mL, 18 J/cm^2, two assays (p=0.69, p=0.78), 40320 min, 0.015 µM) is on record as 0.92. The “effect on CAFC frequencies / pluripotent stem cells” value with pluripotent stem cells (15 nM, 1.5×10^7 cells/mL, after irradiation) is given as “not affected after irradiation; also recorded: not damaged”. Further, the “photoinactivation of the stem cells (CAFC)” value with pluripotent stem cells (1.5×10^6 cells/mL) was “approximately 2 log10”. For the same compound, the “comparison with MC 540” value in the data set with pluripotent stem cells (1.5×10^7 cells/mL, vs Sieber (1987)) is recorded as “compared favorable to MC 540”. The “sensitivity of c-kit^+,Sca-1^+ BM fraction to photoinactivation” value in the data set with pluripotent stem cells (relative to other cell types) is “least sensitive”. Also, the “fluence for photoinactivation to below the detection levels” value with CFU-Mk is on record as 6 J/cm^2; with BFU-E, 3 J/cm^2; with CFU-GM, 6 J/cm^2; in the data set on CFU-Mix, 3 J/cm^2. For the same compound, the cytotoxicity at 0.015 µM in data set [2] (bone marrow cfu-gm, 15 nM Pc 4, murine BM, read-out: losses of CFU-GM on incubation) was in the range of 0 to 15%. For the same compound, the viability at 0.015 µM in data set [2] (bone marrow progenitors, 15 nM, 1.5×10^7 cells/mL, 18 J/cm^2, read-out: surviving fraction (colony forming ability relative to untreated controls)) was less than 0.3%. Moreover, in data set [3] (15 nM, 1.5×10^7 cells/mL, 3 J/cm^2), the “photosensitivity of all committed progenitor subsets” value is reported as “resistant”. Also, the “loss of committed progenitor cells” value in data set [3] (Pc 4, 18 J/cm^2) is listed as 2-3 logs.
